From publication PMC6751662, “Pharmacological and functional similarities of the human neuropeptide Y system in C. elegans challenges phylogenetic views on the FLP/NPR system” (Cell Communication and Signaling : CCS, 2019)

Experiments:
Assay type in all cases: cell-based
Y1R = molecular target: T1, Y1R (Homo sapiens, UniProt P25929); assay: IP accumulation assay, chimeric GαΔ6qi4myr, Y1R; settings: chimeric GαΔ6qi4myr co-transfected, transiently transfected HEK293 cells, mean of at least three independent experiments
T1 construct: expressed in transfected cells; host or cells: HEK293, transient
T1 sequence (P25929 1-384): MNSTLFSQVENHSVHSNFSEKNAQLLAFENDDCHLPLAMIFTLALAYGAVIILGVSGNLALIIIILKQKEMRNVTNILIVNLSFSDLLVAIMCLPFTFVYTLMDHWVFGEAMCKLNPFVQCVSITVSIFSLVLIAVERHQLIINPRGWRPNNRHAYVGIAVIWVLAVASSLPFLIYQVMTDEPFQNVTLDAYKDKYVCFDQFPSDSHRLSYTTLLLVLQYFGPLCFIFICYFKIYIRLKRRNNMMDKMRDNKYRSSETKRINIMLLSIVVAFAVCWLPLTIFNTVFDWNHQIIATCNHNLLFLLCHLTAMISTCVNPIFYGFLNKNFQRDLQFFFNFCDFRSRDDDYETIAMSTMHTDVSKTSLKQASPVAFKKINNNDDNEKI
Description: (§1) For measuring IP accumulation, HEK293 cells grown to 70–80% confluency in 6-well plates were transiently co-transfected using Metafectene Pro (2.5 μl/μg DNA; Biontex) with plasmids containing receptor and/or mock (empty pcDNA3.1) (for endogenous Gq-coupling) using 4 μg total DNA in a ratio of 3:1 following the manufacturer’s instructions. For testing Gα16- and GαΔ6qi4myr-coupling, plasmids encoding the corresponding Gα protein were co-transfected instead of mock. Gα16 is naturally promiscuous and stimulates the phospholipase C (PLC) pathway leading to IP production, while the exchange of the C-terminal four amino acids of Gαq for the corresponding residues of Gαi1 in the chimeric GαΔ6qi4myr confers the ability to couple to Gi/o protein-preferring receptors but still stimulate PLC, thus specifically redirecting downstream cellular signaling. 16 h post transfection, the cells were seeded into white 384-well plates at a density of 20,000 cells/well. Media was removed 24 h later and the cells were incubated with the indicated concentration of peptides for 1 h in HBSS + 20 mM LiCl. IP accumulation was measured with the HTRF-based IP-One Gq kit (Cisbio) on a microplate reader (Tecan Spark).
(§2) For in vitro activation, data is presented as mean ± SEM of at least three independent experiments conducted in technical triplicate. […] For the C. elegans NPRs, we considered the strongest response elicited by any of the peptides downstream of a particular receptor as the receptor’s maximal signal. This may or may not be the biological maximum that can be reached by the ‘true’ endogenous agonist. For the human receptors, the response to the established endogenous agonist reflected the maximal signal.

Y2R = molecular target: T2, Y2R (Homo sapiens, UniProt P49146); assay: IP accumulation assay, chimeric GαΔ6qi4myr, Y2R; settings: chimeric GαΔ6qi4myr co-transfected, transiently transfected HEK293 cells, mean of at least three independent experiments
T2 construct: expressed in transfected cells; host or cells: HEK293, transient
T2 sequence (P49146 1-381): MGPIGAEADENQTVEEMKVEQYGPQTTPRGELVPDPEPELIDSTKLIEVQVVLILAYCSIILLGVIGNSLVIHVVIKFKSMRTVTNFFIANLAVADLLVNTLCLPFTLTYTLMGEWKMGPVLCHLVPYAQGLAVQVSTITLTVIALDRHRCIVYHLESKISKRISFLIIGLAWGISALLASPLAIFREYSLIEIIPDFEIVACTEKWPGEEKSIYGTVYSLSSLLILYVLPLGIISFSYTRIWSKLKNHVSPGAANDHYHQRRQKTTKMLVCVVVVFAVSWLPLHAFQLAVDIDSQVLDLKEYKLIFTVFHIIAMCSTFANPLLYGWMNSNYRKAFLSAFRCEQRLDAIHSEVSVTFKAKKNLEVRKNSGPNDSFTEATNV
Description: as §1, §2

Y5R = molecular target: T3, Y5R (Homo sapiens, UniProt Q15761); assay: IP accumulation assay, chimeric GαΔ6qi4myr, Y5R; settings: chimeric GαΔ6qi4myr co-transfected, transiently transfected HEK293 cells, mean of at least three independent experiments
T3 construct: expressed in transfected cells; host or cells: HEK293, transient
T3 sequence (Q15761 1-445): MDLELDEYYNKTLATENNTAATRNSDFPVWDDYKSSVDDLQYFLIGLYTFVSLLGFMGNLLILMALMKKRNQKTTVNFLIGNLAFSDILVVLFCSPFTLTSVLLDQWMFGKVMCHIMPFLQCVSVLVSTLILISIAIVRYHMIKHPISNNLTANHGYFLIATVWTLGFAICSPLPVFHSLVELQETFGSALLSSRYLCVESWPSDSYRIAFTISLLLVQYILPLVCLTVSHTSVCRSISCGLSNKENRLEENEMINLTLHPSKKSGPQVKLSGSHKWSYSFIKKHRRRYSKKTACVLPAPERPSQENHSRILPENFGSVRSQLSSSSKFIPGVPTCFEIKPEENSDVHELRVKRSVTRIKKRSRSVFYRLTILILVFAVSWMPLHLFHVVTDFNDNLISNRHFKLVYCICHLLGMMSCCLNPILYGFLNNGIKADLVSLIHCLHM
Description: as §1, §2

NPFF1R = molecular target: T4, NPFF1R (Homo sapiens, UniProt Q9GZQ6); assay: IP accumulation assay, chimeric GαΔ6qi4myr, NPFF1R; settings: chimeric GαΔ6qi4myr co-transfected, transiently transfected HEK293 cells, mean of at least three independent experiments
T4 construct: expressed in transfected cells; host or cells: HEK293, transient
T4 sequence (Q9GZQ6 whole entry): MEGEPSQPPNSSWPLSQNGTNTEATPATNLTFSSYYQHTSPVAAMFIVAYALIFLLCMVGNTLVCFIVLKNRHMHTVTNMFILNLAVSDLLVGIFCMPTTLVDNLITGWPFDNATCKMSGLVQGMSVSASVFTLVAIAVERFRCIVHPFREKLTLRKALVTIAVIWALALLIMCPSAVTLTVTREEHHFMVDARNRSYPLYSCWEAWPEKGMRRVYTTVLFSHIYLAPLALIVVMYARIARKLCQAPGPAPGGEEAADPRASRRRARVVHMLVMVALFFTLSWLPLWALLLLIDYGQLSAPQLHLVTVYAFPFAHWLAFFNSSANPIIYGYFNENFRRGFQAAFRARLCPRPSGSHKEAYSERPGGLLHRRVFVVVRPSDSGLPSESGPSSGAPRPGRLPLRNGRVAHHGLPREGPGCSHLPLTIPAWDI
Description: as §1, §2

NPFF2R = molecular target: T5, NPFF2R (Homo sapiens, UniProt Q9Y5X5); assay: IP accumulation assay, chimeric GαΔ6qi4myr, NPFF2R; settings: chimeric GαΔ6qi4myr co-transfected, transiently transfected HEK293 cells, mean of at least three independent experiments
T5 construct: expressed in transfected cells; host or cells: HEK293, transient
T5 sequence (Q9Y5X5 103-522): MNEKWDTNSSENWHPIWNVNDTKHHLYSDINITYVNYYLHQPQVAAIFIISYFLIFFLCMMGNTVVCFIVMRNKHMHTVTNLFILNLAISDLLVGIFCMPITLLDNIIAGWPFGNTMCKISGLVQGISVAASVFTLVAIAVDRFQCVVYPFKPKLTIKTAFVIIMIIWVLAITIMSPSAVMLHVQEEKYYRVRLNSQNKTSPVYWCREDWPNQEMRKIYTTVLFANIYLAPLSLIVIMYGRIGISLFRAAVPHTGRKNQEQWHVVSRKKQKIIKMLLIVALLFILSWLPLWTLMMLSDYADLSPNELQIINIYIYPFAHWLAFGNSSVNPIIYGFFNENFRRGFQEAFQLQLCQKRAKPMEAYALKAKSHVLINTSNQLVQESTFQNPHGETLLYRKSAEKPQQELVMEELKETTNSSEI
Description: as §1, §2

PrRPR = molecular target: T6, PrRPR (Homo sapiens, UniProt P49683); assay: IP accumulation assay, endogenous Gαq coupling, PrRPR; settings: transiently transfected HEK293 cells, mean of at least three independent experiments
T6 construct: expressed in transfected cells; host or cells: HEK293, transient
T6 sequence (P49683 1-370): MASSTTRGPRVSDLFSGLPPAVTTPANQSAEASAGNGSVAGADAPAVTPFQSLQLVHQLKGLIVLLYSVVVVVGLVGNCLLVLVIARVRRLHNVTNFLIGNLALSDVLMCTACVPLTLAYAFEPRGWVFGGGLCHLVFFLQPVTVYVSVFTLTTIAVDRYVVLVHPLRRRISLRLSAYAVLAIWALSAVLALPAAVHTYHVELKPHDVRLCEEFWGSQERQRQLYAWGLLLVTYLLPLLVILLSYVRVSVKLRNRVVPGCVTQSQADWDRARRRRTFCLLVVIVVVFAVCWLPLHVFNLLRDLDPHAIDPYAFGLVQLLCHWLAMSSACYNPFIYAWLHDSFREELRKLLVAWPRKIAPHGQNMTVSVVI
Description: as §1, §2

IP accumulation, x-fold of basal (mean), Y1R (Y1R; 0.1 µM peptide)	IP accumulation, x-fold of basal (mean), Y1R (Y1R; 10 µM peptide)	IP accumulation, x-fold of basal (mean), Y2R (Y2R; 0.1 µM peptide)	IP accumulation, x-fold of basal (mean), Y2R (Y2R; 10 µM peptide)	IP accumulation, x-fold of basal (mean), Y5R (Y5R; 0.1 µM peptide)	IP accumulation, x-fold of basal (mean), Y5R (Y5R; 10 µM peptide)	IP accumulation, x-fold of basal (mean), NPFF1R (NPFF1R; 0.1 µM peptide)	IP accumulation, x-fold of basal (mean), NPFF1R (NPFF1R; 10 µM peptide)	IP accumulation, x-fold of basal (mean), NPFF2R (NPFF2R; 0.1 µM peptide)	IP accumulation, x-fold of basal (mean), NPFF2R (NPFF2R; 10 µM peptide)	IP accumulation, x-fold of basal (mean), PrRPR# (PrRPR; 0.1 µM peptide)	IP accumulation, x-fold of basal (mean), PrRPR# (PrRPR; 10 µM peptide)	Substance
1.54 x-fold of basal	3.82 x-fold of basal	1.01 x-fold of basal	0.70 x-fold of basal	0.67 x-fold of basal	1.41 x-fold of basal	1.29 x-fold of basal	3.42 x-fold of basal	1.58 x-fold of basal	3.28 x-fold of basal	1.86 x-fold of basal	0.96 x-fold of basal	NPENDTPFGTMRF-NH2 [FLP-3-4, C. elegans FMRFamide-like peptide, C-terminally amidated, synthesized by SPPS]
1.25 x-fold of basal	3.68 x-fold of basal	2.81 x-fold of basal	1.41 x-fold of basal	1.33 x-fold of basal	1.17 x-fold of basal	2.11 x-fold of basal	3.54 x-fold of basal	1.10 x-fold of basal	2.86 x-fold of basal	1.04 x-fold of basal	1.27 x-fold of basal	AGSDPNFLRF-NH2 [FLP-1-2, C. elegans FMRFamide-like peptide, C-terminally amidated, synthesized by SPPS]
